This note sets out measurements from ChEMBL document CHEMBL4257005, “Therapeutically active compounds and their methods of use” (2016).

Experiment [1] concerns the target Isocitrate dehydrogenase [NADP] cytoplasmic (Homo sapiens, UniProt O75874). As to the kind of experiment: Inhibition of His-tagged wild type IDH1 (unknown origin)/FLAG-tagged IDH1 R132H mutant heterodimer expressed in Sf9 cells pre-incubated for 1 hr before addition of alpha-KG followed by diaphorase and resazurin addition and measured after 5 mins in presence of NADPH and 30 uM NADP ny fluorescence spectrometry.

Experiment [2] addresses Isocitrate dehydrogenase [NADP] cytoplasmic (Homo sapiens, UniProt O75874, R132C). As to the kind of experiment: Inhibition of DH1 R132C mutant homodimer (unknown origin) expressed in Sf9 cells pre-incubated for 1 hr before addition of alpha-KG followed by 90 mins incubation in presence of NADPH, NADP, diaphorase and resazurin by fluorescence spectrometry.
Experiment [3] deals with Isocitrate dehydrogenase [NADP] cytoplasmic (Homo sapiens, UniProt O75874, R132H). The experiment is described as follows: Inhibition of DH1 R132H mutant homodimer (unknown origin) expressed in Sf9 cells pre-incubated for 1 hr before addition of alpha-KG followed by 90 mins incubation in presence of NADPH, NADP, diaphorase and resazurin by fluorescence spectrometry.
Sequence of Isocitrate dehydrogenase [NADP] cytoplasmic (Homo sapiens, UniProt O75874, R132H) (O75874 2-414 R132H limits assumed): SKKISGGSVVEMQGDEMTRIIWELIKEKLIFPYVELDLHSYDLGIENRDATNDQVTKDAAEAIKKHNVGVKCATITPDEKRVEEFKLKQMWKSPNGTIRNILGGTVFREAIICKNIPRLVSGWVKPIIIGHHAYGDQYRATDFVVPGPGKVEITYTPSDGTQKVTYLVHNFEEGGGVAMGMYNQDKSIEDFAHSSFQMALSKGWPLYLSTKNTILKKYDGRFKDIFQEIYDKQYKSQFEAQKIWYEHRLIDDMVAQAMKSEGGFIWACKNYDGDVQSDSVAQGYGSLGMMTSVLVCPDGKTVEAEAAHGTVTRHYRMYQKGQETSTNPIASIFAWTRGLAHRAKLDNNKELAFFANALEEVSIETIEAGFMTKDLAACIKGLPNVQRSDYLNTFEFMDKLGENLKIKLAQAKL

Sequence of Isocitrate dehydrogenase [NADP] cytoplasmic (Homo sapiens, UniProt O75874, R132C) (O75874 2-414 R132C limits assumed): as the sequence (O75874 2-414 R132H limits assumed) above, with H131C counted along it
Sequence of Isocitrate dehydrogenase [NADP] cytoplasmic (Homo sapiens, UniProt O75874) (O75874 2-414 limits assumed): as the sequence (O75874 2-414 R132H limits assumed) above, with H131R counted along it

For `C[C@@H](Nc1nc(N[C@H](C)C2CC2)nc(-c2ccc(Cl)cc2)n1)C1CC1`, the IC50 entry in experiment [1] is on record as “Not Active”.
For `C[C@@H](Nc1nc(NCC(N)=O)nc(-c2cccc(C(F)(F)F)n2)n1)C1CC1`, the IC50 entry in experiment [2] is “Not Active”.
Take `COc1ccc(F)c(-c2nc(N[C@H](C)C3CC3)nc(N[C@H](C)C3CC3)n2)c1`: the IC50 result in experiment [3] is “Not Active”.
With `C[C@@H](Nc1nc(N[C@H](C)C2CC2)nc(-c2cccc(C(F)(F)F)n2)n1)C(=O)O`, the IC50 entry in experiment [2] was “Not Active”.
`C[C@@H](Nc1nc(N[C@H](C)C2CC2)nc(-c2cccc(C(F)(F)F)n2)n1)C(=O)N(C)C`: the IC50 result in experiment [2] is recorded as “Not Active”.
